Source: patent US7709484B1, “Substituted melanocortin receptor-specific piperazine compounds” (Palatin Technologies, Inc., priority 2004, dated 2010)

Columns and labels:
[1] = target: hMC4-R (Homo sapiens, UniProt P32245); test: Competitive inhibition binding assay, 125I-NDP-α-MSH, hMC4-R membranes; conditions: 1 μM test compound; 0.4 nM 125I-NDP-α-MSH; mean of triplicate; results less than 0% reported as 0%; read-out: Inhibition at 1 μM MC4-R
Method: (§1) Competitive inhibition assay. A competitive inhibition binding assay was conducted using membranes prepared from hMC1-R or B-16 mouse melanoma cells (containing MC1-R), hMC3-R, hMC4-R, and hMC5-R, and using 0.4 nM ^125I-NDP-α-MSH (New England Nuclear, Boston, Mass., USA) in 50 mM HEPES buffer containing 1 mM MgCl2, 2 mM CaCl2, and 5 mM KCl, at pH 7.2. The assay tube also contained a chosen concentration of the test compound of this invention, typically a 1 μM concentration, for determining its efficacy in inhibiting the binding of ^125I-NDP-α-MSH to its receptor. Non-specific binding was measured by complete inhibition of binding of ^125I-NDP-α-MSH in the assay with the presence of 1 μM α-MSH.
(§2) Incubation was for 90 minutes at room temperature, after which the assay mixture was filtered and the membranes washed three times with ice cold buffer. The filter was dried and counted in a gamma counter for remaining radioactivity bound to the membranes. 100% specific binding was defined as the difference in radioactivity (cpm) bound to cell membranes in the absence and presence of 1 μM α-MSH. The cpm obtained in the presence of test compounds are normalized with respect to 100% specific binding to determine the percent inhibition of ^125I-NDP-a-MSH binding. Each assay was conducted in triplicate and the actual mean values are described, with results less than 0% reported as 0%.

[2] = target: hMC3-R (Homo sapiens, UniProt P41968); test: Competitive inhibition binding assay, 125I-NDP-α-MSH, hMC3-R membranes; conditions: 1 μM test compound; 0.4 nM 125I-NDP-α-MSH; mean of triplicate; results less than 0% reported as 0%; read-out: Inhibition at 1 μM MC3-R
Chain of hMC3-R (P41968 whole entry): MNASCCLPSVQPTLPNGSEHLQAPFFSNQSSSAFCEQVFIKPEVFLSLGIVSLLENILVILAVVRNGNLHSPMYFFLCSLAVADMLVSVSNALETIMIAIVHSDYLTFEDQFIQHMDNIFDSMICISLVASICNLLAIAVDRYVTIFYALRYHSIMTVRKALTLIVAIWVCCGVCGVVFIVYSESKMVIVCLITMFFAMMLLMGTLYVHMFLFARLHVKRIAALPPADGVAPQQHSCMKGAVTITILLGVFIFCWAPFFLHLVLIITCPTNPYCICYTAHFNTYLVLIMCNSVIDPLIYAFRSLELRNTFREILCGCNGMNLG
Method: as §1, §2

[3] = target: T1, B-16 mouse melanoma cells (containing MC1-R) (Mus musculus, UniProt Q01727); test: Competitive inhibition binding assay, 125I-NDP-α-MSH, B-16 mouse melanoma cell membranes; conditions: 1 μM test compound; 0.4 nM 125I-NDP-α-MSH; mean of triplicate; results less than 0% reported as 0%; read-out: Inhibition at 1 μM MC1-R (murine)
T1 construct: B-16 mouse melanoma cells (containing MC1-R); endogenous in cells; host or cells: B-16 mouse melanoma cells
T1 sequence (Q01727 whole entry): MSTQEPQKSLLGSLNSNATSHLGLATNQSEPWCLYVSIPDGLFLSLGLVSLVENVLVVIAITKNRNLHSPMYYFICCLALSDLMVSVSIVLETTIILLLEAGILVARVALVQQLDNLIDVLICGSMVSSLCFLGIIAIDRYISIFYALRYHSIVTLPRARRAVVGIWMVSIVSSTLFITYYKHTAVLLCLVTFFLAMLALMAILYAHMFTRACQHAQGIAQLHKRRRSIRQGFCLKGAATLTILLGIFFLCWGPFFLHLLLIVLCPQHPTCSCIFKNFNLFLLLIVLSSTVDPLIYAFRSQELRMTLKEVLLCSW
Method: as §1, §2

[4] = target: hMC5-R (Homo sapiens, UniProt P33032); test: Competitive inhibition binding assay, 125I-NDP-α-MSH, hMC5-R membranes; conditions: 1 μM test compound; 0.4 nM 125I-NDP-α-MSH; mean of triplicate; results less than 0% reported as 0%; read-out: Inhibition at 1 μM MC5-R
Chain of hMC5-R (P33032 whole entry): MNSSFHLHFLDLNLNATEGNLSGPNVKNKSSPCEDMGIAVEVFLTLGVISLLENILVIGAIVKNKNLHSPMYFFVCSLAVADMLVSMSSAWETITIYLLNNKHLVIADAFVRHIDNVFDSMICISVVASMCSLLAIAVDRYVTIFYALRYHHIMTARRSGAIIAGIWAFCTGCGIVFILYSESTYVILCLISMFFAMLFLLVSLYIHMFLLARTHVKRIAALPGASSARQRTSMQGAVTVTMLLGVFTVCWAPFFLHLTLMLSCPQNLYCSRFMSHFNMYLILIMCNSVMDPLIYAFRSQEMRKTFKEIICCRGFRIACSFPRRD
Method: as §1, §2

Chain of hMC4-R (P32245 whole entry): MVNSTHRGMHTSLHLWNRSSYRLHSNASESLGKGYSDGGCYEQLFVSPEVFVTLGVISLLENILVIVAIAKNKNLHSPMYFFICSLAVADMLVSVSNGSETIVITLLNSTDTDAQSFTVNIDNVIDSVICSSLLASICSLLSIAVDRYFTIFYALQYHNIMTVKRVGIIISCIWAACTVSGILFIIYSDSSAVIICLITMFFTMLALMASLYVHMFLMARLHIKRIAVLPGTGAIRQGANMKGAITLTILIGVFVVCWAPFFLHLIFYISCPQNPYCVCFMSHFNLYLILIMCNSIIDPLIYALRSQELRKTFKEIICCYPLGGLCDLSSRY

Compound	inhibition at 1 µM [1] [%]	inhibition at 1 µM [2] [%]	inhibition at 1 µM [3] [%]	inhibition at 1 µM [4] [%]
CCCC(CCC)C(=O)N[C@H](Cc1ccc(Cl)cc1)C(=O)N1CCN[C@H](Cc2ccc3ccccc3c2)C1 [Example 28, 2-Propyl-pentanoic acid [(R)-1-(4-chloro-benzyl)-2-((R)-3-naphthalen-2-ylmethyl-piperazin-1-yl)-2-oxo-ethyl]-amide]	38	0	0	-4
O=C(Cc1ccccc1)N[C@H](Cc1ccc(Cl)cc1)C(=O)N1CCN[C@H](Cc2ccc3ccccc3c2)C1 [Example 25, N—[(R)-1-(4-Chloro-benzyl)-2-((R)-3-naphthalen-2-ylmethyl-piperazin-1-yl)-2-oxo-ethyl]-2-phenyl-acetamide]	19	6	5	18
N[C@H](Cc1ccc(Cl)cc1Cl)C(=O)N1C[C@H](Cc2ccccc2)NC[C@H]1Cc1ccccc1 [Example 10, (R)-2-Amino-1-((2R,5S)-2,5-dibenzyl-piperazin-1-yl)-3-(2,4-dichloro-phenyl)-propan-1-one]	13	0	0	0
O=C(N[C@H](Cc1ccccc1Cl)C(=O)N1CCN[C@H](Cc2ccc3ccccc3c2)C1)[C@H]1Cc2ccccc2CN1 [Example 13, (R)-1,2,3,4-Tetrahydro-isoquinoline-3-carboxylic acid [(R)-1-(2-chloro-benzyl)-2-((R)-3-naphthalen-2-ylmethyl-piperazin-1-yl)-2-oxo-ethyl]-amide]	19	17	24	20
N[C@@H](Cc1ccccc1)C(=O)N1C[C@H](Cc2ccccc2)NC[C@H]1Cc1ccccc1 [Example 9, (S)-2-Amino-1-((2R,5S)-2,5-dibenzyl-piperazin-1-yl)-3-phenyl-propan-1-one]	0	0	0	0
N[C@@H](Cc1c[nH]cn1)C(=O)N[C@H](Cc1ccccc1Cl)C(=O)N1CCN[C@H](Cc2ccc3ccccc3c2)C1 [Example 12, (S)-2-Amino-N—[(R)-1-(2-chloro-benzyl)-2-((R)-3-naphthalen-2-ylmethyl-piperazin-1-yl)-2-oxo-ethyl]-3-(1H-imidazol-4-yl)-propionamide]	0	18	52	12
CC(=O)N[C@H](Cc1ccc(Cl)cc1)C(=O)N1CCN[C@H](Cc2ccc3ccccc3c2)C1 [Example 23, N—[(R)-1-(4-Chloro-benzyl)-2-((R)-3-naphthalen-2-ylmethyl-piperazin-1-yl)-2-oxo-ethyl]-acetamide]	13	0	6	4
N[C@H](Cc1ccc2ccccc2c1)C(=O)N1C[C@H](Cc2ccccc2)NC[C@H]1Cc1ccccc1 [Example 8, (R)-2-Amino-1-((2R,5S)-2,5-dibenzyl-piperazin-1-yl)-3-naphthalen-2-yl-propan-1-one]	0	0	0	10
N[C@H](Cc1ccc2ccccc2c1)C(=O)N1C[C@@H](Cc2ccccc2)NC[C@@H]1Cc1ccccc1 [Example 15, (R)-2-Amino-1-((2S,5R)-2,5-dibenzyl-piperazin-1-yl)-3-naphthalen-2-yl-propan-1-one]	18	0	0	3
N[C@@H](COCc1ccccc1)C(=O)N[C@H](Cc1ccc(Cl)cc1)C(=O)N1CCN[C@H](Cc2ccc3ccccc3c2)C1 [Example 22, (S)-2-Amino-3-benzyloxy-N—[(R)-1-(4-chloro-benzyl)-2-((R)-3-naphthalen-2-ylmethyl-piperazin-1-yl)-2-oxo-ethyl]-propionamide]	36	54	2	27
N[C@H](Cc1ccc(Cl)cc1Cl)C(=O)N1C[C@@H](Cc2ccccc2)NC[C@@H]1Cc1ccccc1 [Example 16, (R)-2-Amino-1-((2S,5R)-2,5-dibenzyl-piperazin-1-yl)-3-(2,4-dichloro-phenyl)-propan-1-one]	14	0	0	0
CC(=O)Oc1ccccc1C(=O)N[C@H](Cc1ccc(Cl)cc1)C(=O)N1CCN[C@H](Cc2ccc3ccccc3c2)C1 [Example 27]	4	0	10	0
N[C@H](Cc1ccccc1Cl)C(=O)N1CCN[C@H](Cc2ccc3ccccc3c2)C1 [Example 11, (R)-2-Amino-3-(2-chloro-phenyl)-1-((R)-3-naphthalen-2-ylmethyl-piperazin-1-yl)-propan-1-one]	9	19	4	0
O=C(CCCc1ccccc1)N[C@H](Cc1ccc(Cl)cc1)C(=O)N1CCN[C@H](Cc2ccc3ccccc3c2)C1 [Example 24, N—[(R)-1-(4-Chloro-benzyl)-2-((R)-3-naphthalen-2-ylmethyl-piperazin-1-yl)-2-oxo-ethyl]-4-phenyl-butyramide]	20	3	5	13
Cc1ccc(S(=O)(=O)N[C@H](Cc2ccc(Cl)cc2)C(=O)N2CCN[C@H](Cc3ccc4ccccc4c3)C2)cc1 [Example 26, N—[(R)-1-(4-Chloro-benzyl)-2-((R)-3-naphthalen-2-ylmethyl-piperazin-1-yl)-2-oxo-ethyl]-4-methyl-benzenesulfonamide]	22	14	10	20
N[C@H](Cc1ccc(Cl)cc1)C(=O)N1CCN[C@H](Cc2ccc3ccccc3c2)C1 [Example 19, (R)-2-Amino-3-(4-chloro-phenyl)-1-((R)-3-naphthalen-2-ylmethyl-piperazin-1-yl)-propan-1-one]	21	0	5	0
N[C@H](Cc1ccccc1)C(=O)N1C[C@@H](Cc2ccccc2)NC[C@@H]1Cc1ccccc1 [Example 17, (R)-2-Amino-1-((2S,5R)-2,5-dibenzyl-piperazin-1-yl)-3-phenyl-propan-1-One]	6	0	0	3
N[C@@H](COCc1ccccc1)C(=O)N[C@H](Cc1ccccc1Cl)C(=O)N1CCN[C@H](Cc2ccc3ccccc3c2)C1 [Example 14, (S)-2-Amino-3-benzyloxy-N—[(R)-1-(2-chloro-benzyl)-2-((R)-3-naphthalen-2-ylmethyl-piperazin-1-yl)-2-oxo-ethyl]-propionamide]	56	33	46	23
O=C(N[C@H](Cc1ccc(Cl)cc1)C(=O)N1CCN[C@H](Cc2ccc3ccccc3c2)C1)[C@H]1Cc2ccccc2CN1 [Example 21, (R)-1,2,3,4-Tetrahydro-isoquinoline-3-carboxylic acid [(R)-1-(4-chloro-benzyl)-2-((R)-3-naphthalen-2-ylmethyl-piperazin-1-yl)-2-oxo-ethyl]-amide]	30	26	6	14
N[C@@H](Cc1c[nH]cn1)C(=O)N[C@H](Cc1ccc(Cl)cc1)C(=O)N1CCN[C@H](Cc2ccc3ccccc3c2)C1 [Example 20, (S)-2-Amino-N—[(R)-1-(4-chloro-benzyl)-2-((R)-3-naphthalen-2-ylmethyl-piperazin-1-yl)-2-oxo-ethyl]-3-(1H-imidazol-4-yl)-propionamide]	25	18	71	0
N[C@@H](Cc1ccccc1)C(=O)N1C[C@@H](Cc2ccccc2)NC[C@@H]1Cc1ccccc1 [Example 18, (S)-2-Amino-1-((2S,5R)-2,5-dibenzyl-piperazin-1-yl)-3-phenyl-propan-1-one]	8	0	0	12
